Laboratory results as given in PMC5986078 (Clinical cancer research : an official journal of the …, 2017).
Values belong to the compound of their own block, whether it stands above or below them.

What was measured:
GSC811 xenograft = assay: Patient-derived GSC811 intracranial xenograft in mice; assay type: in vivo, mouse; conditions: TMZ 4 mg/kg oral daily x5, onalespib 30 mg/kg iv day 16 and 19; vs vehicle
U251HF-GFP xenograft = assay: Orthotopic intracranial zebrafish glioma xenograft; conditions: TMZ 10 μM, onalespib 0.5 μM in fish water, 5-10 dpt
LN229 cells = assay: WST-1 proliferation assay; assay type: cell-based; conditions: Homo sapiens, LN-229, 72 h, read-out: IC50, proliferation (WST assay)
A172 cells = assay: WST-1 proliferation assay; assay type: cell-based; conditions: Homo sapiens, A 172, 72 h, read-out: IC50, proliferation (WST assay)
HSP90 [1] = assay: HSP70 immunohistochemistry of brain tissue as marker of HSP90 inhibition in vivo; set-up: species or system mouse; conditions: 30 mg/kg iv, 0-24 h, vs vehicle treated mice
GSC23 (PN) = assay: WST-1 viability assay in glioma stem cells; assay type: cell-based, human; conditions: GSC23, highest concentrations of onalespib
U251HF cells = assay: WST-1 proliferation assay; assay type: cell-based; conditions: Homo sapiens, 72 h, read-out: IC50, proliferation (WST assay)
[2] = system: LN229, U251HF and A172 cells; assay: Colony forming assay; assay type: cell-based, human; conditions: 0.4 μM for 24 h, colonies after 10 days
GSC2 (MES) = assay: WST-1 viability assay in glioma stem cells; assay type: cell-based, human; conditions: GSC2, highest concentrations of onalespib
GSC lines = assay: Transwell migration; assay type: cell-based, human
[3] = system: endothelial cells exposed to conditioned medium of LN229, U251HF and A172 cells; assay type: cell-based; conditions: 0.4 μM for 24 h
HSP90 [4] = assay: HSP70 immunoblot as biomarker of HSP90 inhibition in glioma cell lines; assay type: cell-based, human; conditions: LN229, U251HF, A172; 0.1, 0.2, 0.4 μM, 48 h
CD133, Nestin, Olig2 = assay: Stem cell marker expression in GSC11 and GSC23; assay type: cell-based, human
[5] = system: LN229, U251HF and A172 cells; assay: Apoptosis: annexin V/PI flow cytometry and caspase-3/7 activation; assay type: cell-based, human
EGFR signaling pathway = assay: Immunoblot of EGFR-AKT-ERK-S6 signaling in glioma cell lines; assay type: cell-based, human
GSC11 (PN) = assay: WST-1 viability assay in glioma stem cells; assay type: cell-based, human; conditions: GSC11, highest concentrations of onalespib
[6] = Brain and plasma pharmacokinetics by LC-MS/MS after iv bolus; assay type: in vivo, mouse; conditions: 30 mg/kg iv single dose
p-STAT3 = p-STAT3 immunoblot in MES and PN GSC lines; assay type: cell-based, human; conditions: 48 h
[7] = system: U251HF, LN229 and A172 cells; assay: Wound healing; assay type: cell-based, human; conditions: 0.4 μM, 24 h, vs untreated controls
EGFRvIII = assay: Immunoblot in U87 cells expressing mutant EGFRvIII; assay type: cell-based, human; conditions: 0.1, 0.2, 0.4 μM
GSC20 (MES) = assay: WST-1 viability assay in glioma stem cells; assay type: cell-based, human; conditions: GSC20, highest concentrations of onalespib
[8] = system: HSP90 / EGFR pathway in GSC11 and GSC23; assay: Immunoblot of HSP70 and EGFR pathway in GSC11 and GSC23 neurospheres; assay type: cell-based, human; conditions: GSC11 and GSC23, 48 h

Structure (SMILES): Cn1nnc2c(C(N)=O)ncn2c1=O [TMZ, temozolomide]
- survival (GSC811 xenograft): did not extend survival
- tumor burden (U251HF-GFP xenograft): moderate reductions

- IC50 (U251HF cells): ≤ 250 nM
- brain Cmax relative to plasma Cmax (fold lower) [6]: 4.7 fold
- overall brain exposure versus plasma [6]: greater than of plasma
Structure (SMILES): CC(C)c1cc(C(=O)N2Cc3ccc(CN4CCN(C)CC4)cc3C2)c(O)cc1O [onalespib, (2,4-dihydroxy-5-isopropylphenyl)-[5-(4-methylpiperazin-1-ylmethyl)-1,3-dihydroisoindol-2-yl]methanone]
- IC50 (LN229 cells): ≤ 250 nM
- IC50 (A172 cells): ≤ 250 nM
- percentage and intensity of HSP70 pixels in brain tissue (HSP90 [1]): increase
- loss of viability (GSC23 (PN)): 50%
- colony formation (proliferative capacity) [2]: significantly inhibited
- survival (GSC811 xenograft): did not extend survival
- viability (lost to) (GSC2 (MES)): 50%
- invasive ability, transwell migration (GSC lines): markedly decreased
- number of microtubules formed by endothelial cells in response to CM [3]: strongly inhibited
- survival (U251HF-GFP xenograft): extended survival
- tumor burden (U251HF-GFP xenograft): moderate reductions
- HSP70 levels (marker of HSP90 inhibition) (HSP90 [4]): increase in HSP70 levels in cells in a dose-dependent manner
- expression of stem cell markers CD133 and Nestin (CD133, Nestin, Olig2): dose-dependent decrease
- activation of caspase-3 and caspase-7 ([5]; increasing concentrations of onalespib): dose-dependent activation
- percentage of annexin positive cells ([5]; increasing concentrations, 48 h): increase
- EGFR level, time course (EGFR signaling pathway; 0.4 μM, up to 24 h): time-dependent decline
- levels of EGFR, p-EGFR, phospho- and total AKT, ERK1/2 and S6 (EGFR signaling pathway; U251HF, LN229, A172, 0.1-0.4 μM, 48 h): robust dose-dependent decrease
- loss of viability (GSC11 (PN)): over 90%
- onalespib level in brain tissue versus plasma ([6]; each time point from 2 h up to 24 h): higher in brain tissue compared to the plasma
- p-STAT3 (p-STAT3): inhibited
- cell migration, wound healing [7]: reduced ability to migrate
- depletion of mutant EGFRvIII and downstream intermediates (EGFRvIII): equally effective
- viability (lost to) (GSC20 (MES)): 50%
- HSP70 levels in GSC [8]: characteristic increase
- levels of total EGFR, pEGFR in GSC [8]: steep declines
